Molecular target: T1, SIRT1 (Homo sapiens, UniProt Q96EB6)
T1 sequence (Q96EB6 1-747): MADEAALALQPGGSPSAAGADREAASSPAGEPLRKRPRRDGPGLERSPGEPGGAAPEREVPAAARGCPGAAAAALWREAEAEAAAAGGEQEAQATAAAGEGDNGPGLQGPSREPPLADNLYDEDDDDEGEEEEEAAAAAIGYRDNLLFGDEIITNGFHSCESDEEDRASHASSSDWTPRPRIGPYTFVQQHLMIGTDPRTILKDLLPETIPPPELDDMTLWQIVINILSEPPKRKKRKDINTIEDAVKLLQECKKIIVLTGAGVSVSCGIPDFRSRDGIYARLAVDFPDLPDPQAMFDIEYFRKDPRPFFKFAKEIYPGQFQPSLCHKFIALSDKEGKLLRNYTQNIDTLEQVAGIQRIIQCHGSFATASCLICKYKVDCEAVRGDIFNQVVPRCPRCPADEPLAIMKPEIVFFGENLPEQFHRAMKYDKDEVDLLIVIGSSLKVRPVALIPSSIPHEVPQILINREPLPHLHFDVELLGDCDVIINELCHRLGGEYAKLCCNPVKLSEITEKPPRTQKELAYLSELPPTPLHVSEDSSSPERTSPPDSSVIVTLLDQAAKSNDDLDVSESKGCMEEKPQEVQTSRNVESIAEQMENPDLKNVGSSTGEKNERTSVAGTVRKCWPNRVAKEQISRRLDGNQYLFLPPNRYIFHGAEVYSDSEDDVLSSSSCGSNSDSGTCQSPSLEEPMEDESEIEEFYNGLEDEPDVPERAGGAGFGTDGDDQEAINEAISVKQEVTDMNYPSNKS
Assay: Trp mass spectrometry assay of SIRT1 activation (Ac-R-H-K-K(Ac)-W-NH2 peptide)
Format: biochemical
Details: Trp peptide 0.5 μM, 120 μM βNAD+, 10 nM SIRT1, 25 min at 25° C.; for Emax: 25 min, read-out: TRP MAX RESP (percent maximum fold activation)
Method in brief: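 N-terminal His-tagged human SIRT1, expressed in BL21(DE3) and purified, was incubated 25 min with an acetylated Trp peptide and NAD plus test compound at varying concentrations, then quenched with formic acid. OAADPR or deacetylated peptide was quantified by mass spectrometry versus compound-free control; EC1.5 is the concentration giving 50% activity increase, with percent maximum activation.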

Compound	Emax (relative to control (100%)) [%]	TRP Activity (EC1.5, concentration of test compound that results in 150% activation of SIRT1)	TRP MAX RESP (percent maximum fold activation) (relative to control (100%))
Cc1ccc2c(NC(=O)N3c4nc(C(=O)N[C@H](C)C(F)(F)F)cc(C)c4N4CC[C@H]3C4)n[nH]c2n1 [Example 289, (4S)-9-methyl-N5-(6-methyl-1H-pyrazolo[3,4-b]pyridin-3-yl)-N7-((R)-1,1,1-trifluoropropan-2-yl)-3,4-dihydro-1,4-methanopyrido[2,3-b][1,4]diazepine-5,7(2H)-dicarboxamide]	> 150	A (EC1.5<1 μM)	–
Cc1cc(C(=O)N[C@H](C)C(F)(F)F)nc2c1N1CC[C@@H](C1)N2C(=O)Nc1ccc(OC[C@@H](O)CO)cn1 [Example 290, (4S)—N5-(5-((S)-2,3-dihydroxypropoxy)pyridin-2-yl)-9-methyl-N7-((R)-1,1,1-trifluoropropan-2-yl)-3,4-dihydro-1,4-methanopyrido[2,3-b][1,4]diazepine-5,7(2H)-dicarboxamide]	> 150	A (EC1.5<1 μM)	–
Cc1cc2c(nc1C(=O)N[C@H](C)C(F)(F)F)N(C(=O)Nc1cc(OC[C@H](O)CO)ccn1)[C@H]1CCN2C1 [Example 291, (4S)—N5-(4-((R)-2,3-dihydroxypropoxy)pyridin-2-yl)-8-methyl-N7-((R)-1,1,1-trifluoropropan-2-yl)-3,4-dihydro-1,4-methanopyrido[2,3-b][1,4]diazepine-5,7(2H)-dicarboxamide]	< 150	A (EC1.5<1 μM)	–
Cc1cc(C(=O)N[C@H](C)C(F)(F)F)nc2c1N1CC[C@@H](C1)N2C(=O)Nc1cc(OC[C@H](O)CO)ccn1 [Example 292, (4S)—N5-(4-((R)-2,3-dihydroxypropoxy)pyridin-2-yl)-9-methyl-N7-((R)-1,1,1-trifluoropropan-2-yl)-3,4-dihydro-1,4-methanopyrido[2,3-b][1,4]diazepine-5,7(2H)-dicarboxamide]	< 150	A (EC1.5<1 μM)	–
Cc1ncc(-c2ccnc(NC(=O)N3c4nc(C(=O)NCC(F)(F)F)cc(C)c4N4CC[C@H]3C4)c2)o1 [Example 293, (4S)-9-methyl-N5-(4-(2-methyloxazol-5-yl)pyridin-2-yl)-N7-(2,2,2-trifluoroethyl)-3,4-dihydro-1,4-methanopyrido[2,3-b][1,4]diazepine-5,7(2H)-dicarboxamide]	< 150	A (EC1.5<1 μM)	–
Cc1cc(C(=O)NCC(F)(F)F)nc2c1N1CC[C@@H](C1)N2C(=O)Nc1cc(OC[C@H](O)CO)ccn1 [Example 294, (4S)—N5-(4-((R)-2,3-dihydroxypropoxy)pyridin-2-yl)-9-methyl-N7-(2,2,2-trifluoroethyl)-3,4-dihydro-1,4-methanopyrido[2,3-b][1,4]diazepine-5,7(2H)-dicarboxamide]	< 150	A (EC1.5<1 μM)	–
O=C(NCC(F)(F)F)c1ccc2c(n1)N(C(=O)Nc1ccccn1)[C@H]1CC[N+]2([O-])C1 [Example 295, (4S)-5-(pyridin-2-ylcarbamoyl)-7-((2,2,2-trifluoroethyl)carbamoyl)-2,3,4,5-tetrahydro-1H-1,4-methanopyrido[2,3-b][1,4]diazepine 1-oxide]	> 150	B (EC1.5 1-25 μM)	–
C[C@@H](NC(=O)c1ccc2c(n1)N(C(=O)Nc1cc(-c3cnn[nH]3)ccn1)[C@H]1CCN2C1)C(F)(F)F [Example 296, (4S)—N5-(4-(1H-1,2,3-triazol-5-yl)pyridin-2-yl)-N7-((R)-1,1,1-trifluoropropan-2-yl)-3,4-dihydro-1,4-methanopyrido[2,3-b][1,4]diazepine-5,7(2H)-dicarboxamide]	< 150	A (EC1.5<1 μM)	–
CC(C)NC(=O)c1ccnc(NC(=O)N2c3nc(C(=O)N[C@H](C)C(F)(F)F)ccc3N3CC[C@H]2C3)c1 [Example 297, (4S)—N5-(4-(isopropylcarbamoyl)pyridin-2-yl)-N7-((R)-1,1,1-trifluoropropan-2-yl)-3,4-dihydro-1,4-methanopyrido[2,3-b][1,4]diazepine-5,7(2H)-dicarboxamide]	< 150	A (EC1.5<1 μM)	–
C#Cc1ccnc(NC(=O)N2c3nc(C(=O)N[C@H](C)C(F)(F)F)ccc3N3CC[C@H]2C3)c1 [Example 299, (4S)—N5-(4-ethynylpyridin-2-yl)-N7-((R)-1,1,1-trifluoropropan-2-yl)-3,4-dihydro-1,4-methanopyrido[2,3-b][1,4]diazepine-5,7(2H)-dicarboxamide]	< 150	A (EC1.5<1 μM)	–
Cc1cnnc(NC(=O)N2c3nc(C(=O)N[C@H](C)C(F)(F)F)ccc3N3CC[C@H]2C3)c1 [Example 300, (4S)—N5-(5-methylpyridazin-3-yl)-N7-((R)-1,1,1-trifluoropropan-2-yl)-3,4-dihydro-1,4-methanopyrido[2,3-b][1,4]diazepine-5,7(2H)-dicarboxamide]	< 150	A (EC1.5<1 μM)	–
C[C@@H](NC(=O)c1ccc2c(n1)N(C(=O)Nc1cc(O)ccn1)[C@H]1CCN2C1)C(F)(F)F [Example 301, (4S)—N5-(4-hydroxypyridin-2-yl)-N7-((R)-1,1,1-trifluoropropan-2-yl)-3,4-dihydro-1,4-methanopyrido[2,3-b][1,4]diazepine-5,7(2H)-dicarboxamide]	< 150	A (EC1.5<1 μM)	–
CCNC(=O)c1ccnc(NC(=O)N2c3nc(C(=O)N[C@H](C)C(F)(F)F)ccc3N3CC[C@H]2C3)c1 [Example 304, (4S)—N5-(4-(ethylcarbamoyl)pyridin-2-yl)-N7-((R)-1,1,1-trifluoropropan-2-yl)-3,4-dihydro-1,4-methanopyrido[2,3-b][1,4]diazepine-5,7(2H)-dicarboxamide]	< 150	A (EC1.5<1 μM)	–
C[C@@H](NC(=O)c1ccc2c(n1)N(C(=O)Nc1cc(C(=O)NC3CC3)ccn1)[C@H]1CCN2C1)C(F)(F)F [Example 305, (4S)—N5-(4-(cyclopropylcarbamoyl)pyridin-2-yl)-N7-((R)-1,1,1-trifluoropropan-2-yl)-3,4-dihydro-1,4-methanopyrido[2,3-b][1,4]diazepine-5,7(2H)-dicarboxamide]	< 150	A (EC1.5<1 μM)	–
C[C@@H](NC(=O)c1ccc2c(n1)N(C(=O)Nc1cc(N3CCOCC3)ccn1)[C@H]1CCN2C1)C(F)(F)F [Example 307, (4S)—N5-(4-morpholinopyridin-2-yl)-N7-((R)-1,1,1-trifluoropropan-2-yl)-3,4-dihydro-1,4-methanopyrido[2,3-b][1,4]diazepine-5,7(2H)-dicarboxamide]	< 150	A (EC1.5<1 μM)	–
C[C@@H](NC(=O)c1ccc2c(n1)N(C(=O)Nc1cc(-c3nn[nH]n3)ccn1)[C@H]1CCN2C1)C(F)(F)F [Example 308, (4S)—N5-(4-(2H-tetrazol-5-yl)pyridin-2-yl)-N7-((R)-1,1,1-trifluoropropan-2-yl)-3,4-dihydro-1,4-methanopyrido[2,3-b][1,4]diazepine-5,7(2H)-dicarboxamide]	< 150	A (EC1.5<1 μM)	–
C[C@@H](NC(=O)c1ccc2c(n1)N(C(=O)Nc1cc(NCCO)ccn1)[C@H]1CCN2C1)C(F)(F)F [Example 309, (4S)—N5-(4-((2-hydroxyethyl)amino)pyridin-2-yl)-N7-((R)-1,1,1-trifluoropropan-2-yl)-3,4-dihydro-1,4-methanopyrido[2,3-b][1,4]diazepine-5,7(2H)-dicarboxamide]	< 150	A (EC1.5<1 μM)	–
C[C@@H](NC(=O)c1ccc2c(n1)N(C(=O)Nc1ncc(F)cc1F)[C@H]1CCN2C1)C(F)(F)F [Example 310, (4S)—N5-(3,5-difluoropyridin-2-yl)-N7-((R)-1,1,1-trifluoropropan-2-yl)-3,4-dihydro-1,4-methanopyrido[2,3-b][1,4]diazepine-5,7(2H)-dicarboxamide]	–	B (EC1.5 1-25 μM)	B (Fold Activation<150%)

From US10072011B2, “Substituted bridged urea analogs as sirtuin modulators” (GlaxoSmithKline Intellectual Property (No.2) Limited, priority 2014, dated 2018)
